Reference: the Deep4Chem optical property database
Values belong to the compound of their own block, whether it stands above or below them.

Assay: solvent given as SMILES

SMILES: N#Cc1c(-n2c3ccccc3c3ccccc32)cc(N2c3ccccc3C(c3ccccc3)(c3ccccc3)c3ccccc32)cc1-n1c2ccccc2c2ccccc21
- fluorescence lifetime (in Cc1ccccc1): 18.4 ns

SMILES: CCOc1ccc(/C=C/C=C/C=C/c2ccc([N+](=O)[O-])cc2)cc1
- fluorescence lifetime (in Cc1ccccc1): 1.5 ns

SMILES: COc1ccc(N(c2ccccc2)c2cc3ccc4cc(N(c5ccccc5)c5ccc(OC)cc5)cc5ccc(c2)c3c45)cc1
- fluorescence lifetime (in Cc1ccccc1): 18 ns

SMILES: Nc1ccc2c(c1)C(=O)c1ccccc1-2
- fluorescence lifetime (in C1CCCCC1): 4 ns
- fluorescence lifetime (in c1ccccc1): 0.84 ns

SMILES: CC(=O)c1ccc(-c2cc(C)[o+]c(C)c2)cc1
- fluorescence lifetime (in ClCCl): 2 ns

SMILES: CC1(C)C(/C=C/C=C/C=C/C=C2/N(CCCCS(=O)(=O)[O-])c3ccc4ccccc4c3C2(C)C)=[N+](CCCCS(=O)(=O)[O-])c2ccc3ccccc3c21
- fluorescence lifetime (in CC(C)=O): 0.87 ns
- fluorescence lifetime (in CCO): 0.62 ns
- fluorescence lifetime (in CO): 0.51 ns
- fluorescence lifetime (in CS(C)=O): 0.97 ns
- fluorescence lifetime (in ClC(Cl)Cl): 1.14 ns
- fluorescence lifetime (in ClCCl): 0.91 ns
- fluorescence lifetime (in O): 0.17 ns

SMILES: Cc1cccc(-c2cccc(C)c2)c1
- fluorescence lifetime (in C1CCCCC1): 18 ns

SMILES: CN1CCCc2cc(C3=Cc4cccc[n+]4[B-](F)(F)O3)ccc21
- fluorescence lifetime (in ClC(Cl)Cl): 3 ns

SMILES: O=C(O)c1ccc2ccc3cccc4ccc1c2c34
- fluorescence lifetime (in C1CCOC1): 10.6 ns
- fluorescence lifetime (in CC#N): 9 ns
- fluorescence lifetime (in CCCCCC): 8.68 ns
- fluorescence lifetime (in CCO): 7.78 ns
- fluorescence lifetime (in CN(C)C=O): 8.43 ns
- fluorescence lifetime (in CO): 15.5 ns
- fluorescence lifetime (in Cc1ccccc1): 7.14 ns
- fluorescence lifetime (in ClCCl): 5.12 ns

SMILES: COC(=O)CC1(C(=O)O)Oc2c(c(C(C)=O)c3c(c2C(C)=O)OCO3)O1
- fluorescence lifetime (in CC#N): 20 ns

SMILES: COc1ccc(N(c2ccc(OC)cc2)c2cc3ccc4cc(B(c5c(C)cc(C)cc5C)c5c(C)cc(C)cc5C)cc5ccc(c2)c3c45)cc1
- fluorescence lifetime (in C1CCOC1): 6.1 ns
- fluorescence lifetime (in CC(C)=O): 3.2 ns
- fluorescence lifetime (in CCCCCC): 7.7 ns
- fluorescence lifetime (in Cc1ccccc1): 8.7 ns
- fluorescence lifetime (in ClC(Cl)Cl): 6.5 ns
- fluorescence lifetime (in ClCCl): 6.5 ns

SMILES: Cc1nnc(-c2cc(-c3nnc(C)o3)c(-n3c4ccccc4c4ccccc43)cc2-n2c3ccccc3c3ccccc32)o1
- fluorescence lifetime (in Cc1ccccc1): 6.5 ns
- fluorescence lifetime (in O=P(c1ccccc1)(c1ccccc1)c1ccccc1Oc1ccccc1P(=O)(c1ccccc1)c1ccccc1): 8.5 ns

SMILES: CCCCN1C(=O)c2cc(Oc3ccc(C(C)(C)C)cc3)c3c4c(Oc5ccc(C(C)(C)C)cc5)c(Oc5ccc(C(C)(C)C)cc5)c5c6c(cc(Oc7ccc(C(C)(C)C)cc7)c(c7c(Oc8ccc(C(C)(C)C)cc8)c(Oc8ccc(C(C)(C)C)cc8)c(c2c37)C1=O)c64)C(=O)N(CCCC)C5=O
- fluorescence lifetime (in ClC(Cl)Cl): 6.3 ns

SMILES: CSc1ccc2c(c1)N(CCCN(C)C)c1ccccc1S2
- fluorescence lifetime (in CC#N): 1.16 ns
- fluorescence lifetime (in CO): 1.15 ns
- fluorescence lifetime (in O): 1.17 ns

SMILES: CC1=C(c2cccs2)C(C)=[N+]2C1=C(c1ccc(OS(=O)(=O)c3ccc([N+](=O)[O-])cc3[N+](=O)[O-])cc1)c1c(C)c(-c3cccs3)c(C)n1[B-]2(F)F
- fluorescence lifetime (in Cc1ccccc1): 3.6 ns

SMILES: CC(=O)O[B-]1(OC(C)=O)OC(/C=C/c2cccc3ccccc23)=CC(/C=C/c2cccc3ccccc23)=[O+]1
- fluorescence lifetime (in C1CCOC1): 5.75 ns
- fluorescence lifetime (in CC#N): 4.5 ns
- fluorescence lifetime (in CC(C)=O): 4.67 ns
- fluorescence lifetime (in CS(C)=O): 4.24 ns
- fluorescence lifetime (in Cc1ccccc1): 5.13 ns
- fluorescence lifetime (in ClC(Cl)Cl): 5.73 ns
- fluorescence lifetime (in ClCCl): 5.99 ns

SMILES: CCCCCCOc1ccc(N(c2ccc(OCCCCCC)cc2)c2ccc(-c3sc(-c4ccc(N(c5ccc(OCCCCCC)cc5)c5ccc(OCCCCCC)cc5)cc4)c4nc(-c5ccc(OC)cc5)c(-c5ccc(OC)cc5)nc34)cc2)cc1
- fluorescence lifetime (in CN(C)C=O): 0.57 ns

SMILES: Clc1nc(Cl)nc(Nc2cc3ccc4cccc5ccc(c2)c3c45)n1
- fluorescence lifetime (in CCCCCCC): 122 ns

SMILES: c1ccc2c(c1)-c1ccccc1C21c2ccccc2-c2c1c1c3ccccc3ccc1c1ccccc21
- fluorescence lifetime (in Cc1ccccc1): 3.14 ns

SMILES: N#C/C(=C\c1ccc([N+](=O)[O-])cc1)c1nc(-c2ccccc2)cs1
- fluorescence lifetime (in CC#N): 2.85 ns

SMILES: C[Si](C)(C)c1ccc(C#N)c2ccccc12
- fluorescence lifetime (in C1CCCCC1): 11 ns

SMILES: CCN(CC)c1ccc2c(c1)oc(=O)c1cnc3c(c(C)nn3-c3ccccc3)c12
- fluorescence lifetime (in ClCCl): 3.34 ns

SMILES: CCCCCCCCCCCCn1cccc1/C=C/c1ccc(/C=C/c2cccn2CCCCCCCCCCCC)cc1
- fluorescence lifetime (in Cc1ccccc1): 1.06 ns

SMILES: CC(C)(C)c1ccc(C#Cc2cc3ccc4cc(C#Cc5ccc(C(C)(C)C)cc5)cc5ccc(c2)c3c45)cc1
- fluorescence lifetime (in ClCCl): 37.1 ns

SMILES: [NH3+]c1cc([NH3+])cc(-c2nc3ccccc3s2)c1
- fluorescence lifetime (in O): 0.59 ns

SMILES: COC(=O)c1cc(=O)n(C)c2cc(-c3ccc(OC)cc3)sc12
- fluorescence lifetime (in ClCCl): 2.3 ns

SMILES: c1ccc2[nH]ccc2c1
- fluorescence lifetime (in O): 4.49 ns

SMILES: CCc1c(C)c2n(c1C)[B-](F)(F)[N+]1=C(c3ccc[nH]3)c3ccccc3C1=C2
- fluorescence lifetime (in ClCCl): 6.41 ns

SMILES: CCOC(=O)c1ccccc1-c1c2ccc(=O)cc-2oc2cc(OC(=O)[C@H](CO[Si](C)(C)C(C)(C)C)NC(=O)OC(C)(C)C)ccc12
- fluorescence lifetime (in C1CCOC1): 2.3 ns
- fluorescence lifetime (in CC#N): 2.7 ns
- fluorescence lifetime (in CCO): 3.65 ns
- fluorescence lifetime (in CS(C)=O): 4.03 ns

SMILES: CCC12C(=C3C(=C4c5ccc(-c6ccc(C(C)=O)s6)cc5S(=O)(=O)C41CC)C(F)(F)C(F)(F)C3(F)F)c1ccc(-c3ccc(C(C)=O)s3)cc1S2(=O)=O (stereo not given)
- fluorescence lifetime (in C1COCCO1): 1.9 ns

SMILES: CCCCOC(=O)c1cc(Cl)c2c3c(Cl)cc4c5c(cc(Cl)c(c6c(Cl)cc(C(=O)OCCCC)c1c26)c53)C(=O)N(c1c(C(C)C)cccc1C(C)C)C4=O
- fluorescence lifetime (in Cc1ccccc1): 4.86 ns

SMILES: CC(C)(C)n1c(=O)c2cc3ccc4cccc5ccc(c2c1=O)c3c45
- fluorescence lifetime (in ClC(Cl)Cl): 4.09 ns

SMILES: Cc1ccc(-c2ccc(/C=C/c3cccn3C)cn2)nc1
- fluorescence lifetime (in C1COCCO1): 0.59 ns
- fluorescence lifetime (in CC#N): 0.51 ns
- fluorescence lifetime (in CCCCCC): 0.86 ns
- fluorescence lifetime (in CCO): 0.92 ns
- fluorescence lifetime (in CN(C)C=O): 0.65 ns
- fluorescence lifetime (in CO): 1 ns
- fluorescence lifetime (in CS(C)=O): 0.64 ns
- fluorescence lifetime (in Cc1ccccc1): 0.56 ns
- fluorescence lifetime (in ClC(Cl)Cl): 0.62 ns
- fluorescence lifetime (in c1ccccc1): 0.51 ns

SMILES: Cc1ccc(-c2cc(-c3ccccc3)c3c(N)nc(N4CCCC4)c(C#N)c3n2)cc1
- fluorescence lifetime (in CC#N): 10.3 ns
- fluorescence lifetime (in CC(C)=O): 9.9 ns
- fluorescence lifetime (in CC(C)O): 10.4 ns
- fluorescence lifetime (in CO): 8.5 ns
- fluorescence lifetime (in ClC(Cl)Cl): 13.1 ns
- fluorescence lifetime (in ClCCl): 13.1 ns
- fluorescence lifetime (in c1ccccc1): 12.6 ns

SMILES: CC[n+]1c(C=C2C(=O)C(C=C3N(C)c4ccccc4C3(C)C)=C2[O-])[se]c2ccccc21
- fluorescence lifetime (in CO): 0.41 ns
- fluorescence lifetime (in ClC(Cl)Cl): 2.44 ns

SMILES: CC1=CC(c2ccc3ccccc3c2)=[O+][B-]2(OC(=O)C(=O)O2)O1
- fluorescence lifetime (in CC#N): 18.8 ns
- fluorescence lifetime (in ClC(Cl)(Cl)Cl): 5.1 ns

SMILES: C/C=C/c1ccc(OC)cc1
- fluorescence lifetime (in CC#N): 8.7 ns
- fluorescence lifetime (in CCCCCC): 7.9 ns

SMILES: CC(C)(C)c1ccc2c(c1)-c1c3c(c4c5c1-c1cc(C(C)(C)C)ccc1OB5Oc1ccc(C(C)(C)C)cc1-4)-c1cc(C(C)(C)C)ccc1OB3O2
- fluorescence lifetime (in ClCCl): 3.96 ns

Continued, values first:

- fluorescence lifetime (in CCO): 2.5 ns
- fluorescence lifetime (in ClCCl): 5.6 ns
SMILES: N#Cc1cnc(-c2c3ccccc3c(-c3ncc(C#N)cn3)c3ccccc23)nc1

- fluorescence lifetime (in ClCCl): 4.4 ns
SMILES: COc1ccc(-c2c3ccccc3c(-c3ccc(OC)cc3)c3ccccc23)cc1

- fluorescence lifetime (in ClCCl): 0.85 ns
SMILES: C(=C\c1ccc(-c2ccncc2)cc1)/c1ccc(-c2ccncc2)cc1

- fluorescence lifetime (in ClCCl): 6.42 ns
SMILES: Cc1cc(C)n2c1C=C1c3ccccc3C(c3c[nH]c4ccccc34)=[N+]1[B-]2(F)F

- fluorescence lifetime (in CCO): 0.25 ns
- fluorescence lifetime (in ClCCl): 0.4 ns
SMILES: N#Cc1cnc(-c2c3ccccc3c(-c3ccccc3)c3ccccc23)nc1

- fluorescence lifetime (in C1CCCCC1): 3.2 ns
- fluorescence lifetime (in CC#N): 4.3 ns
- fluorescence lifetime (in ClCCl): 3.7 ns
SMILES: O=S1(=O)c2ccc(-c3c4ccccc4cc4ccccc34)cc2-c2cc(-c3c4ccccc4cc4ccccc34)ccc21

- fluorescence lifetime (in CCO): 6.4 ns
- fluorescence lifetime (in ClC(Cl)Cl): 4.8 ns
SMILES: COc1ccc2c(-c3nc(-c4ccccc4)no3)cc(=O)oc2c1

- fluorescence lifetime (in C1CCCCC1): 8.8 ns
SMILES: Cc1cc(C)c(B(c2c(C)cc(C)cc2C)c2cc3ccc4ccccc4c3c3c2cc(N(C)C)c2ccccc23)c(C)c1

- fluorescence lifetime (in CC#N): 0.028 ns
SMILES: COc1cccc(-[c+]2c3ccccc3oc3ccccc32)c1

- fluorescence lifetime (in C1CCCCC1): 3.9 ns
- fluorescence lifetime (in CC#N): 4.3 ns
- fluorescence lifetime (in ClCCl): 4.7 ns
SMILES: c1ccc2c(-c3ccc4sc5ccc(-c6c7ccccc7cc7ccccc67)cc5c4c3)c3ccccc3cc2c1

- fluorescence lifetime (in CC#N): 4.3 ns
SMILES: c1ccc(C[n+]2cc3ccc4c[n+](Cc5ccccc5)cc5ccc(c2)c3c45)cc1

- fluorescence lifetime (in ClC(Cl)Cl): 7 ns
SMILES: CN(C)c1ccc(-c2cc(-c3cccs3)nc(-c3ccccc3)n2)cc1

- fluorescence lifetime (in N#Cc1ccc2c(c1)c1ccccc1n2-c1cccc(-n2c3ccccc3c3ccccc32)c1): 6.99 ns
SMILES: CC1(C)c2ccccc2N(c2ccc(-c3ccc(C#N)cc3)cc2)c2ccccc21

- fluorescence lifetime (in ClCCl): 11.5 ns
SMILES: Cc1cc(C)c(-c2c3ccccc3c3ccc4cc5c(-c6c(C)cc(C)cc6C)c6ccccc6c6ccc7cc2c3c4c7c56)c(C)c1

- fluorescence lifetime (in CC#N): 1 ns
SMILES: Cc1ccc(-[c+]2c3ccccc3sc3ccccc32)cc1

- fluorescence lifetime (in CC#N): 5.8 ns
SMILES: C[n+]1cc2ccc3c[n+](C)c4ccccc4c3c2c2ccccc21

- fluorescence lifetime (in CC#N): 3.81 ns
- fluorescence lifetime (in CS(C)=O): 4.7 ns
SMILES: [O-]c1c(-c2nc3ccccc3s2)cc2ccc3cccc4ccc1c2c34

- fluorescence lifetime (in C1CCCCC1): 4.73 ns
- fluorescence lifetime (in C1CCOC1): 5.04 ns
- fluorescence lifetime (in C1COCCO1): 5.21 ns
- fluorescence lifetime (in CC#N): 5.05 ns
- fluorescence lifetime (in CCCCCCC): 4.64 ns
- fluorescence lifetime (in CCO): 4.53 ns
- fluorescence lifetime (in CN(C)C=O): 4.95 ns
- fluorescence lifetime (in CO): 3.74 ns
- fluorescence lifetime (in O): 2.6 ns
- fluorescence lifetime (in OCCO): 3.59 ns
SMILES: Cc1nn(-c2ccccc2)c(C2=NN(c3ccc(Br)cc3)[C@@H](c3ccccc3)[C@@H]2c2ccccc2)c1C#N

- fluorescence lifetime (in ClCCl): 7 ns
SMILES: c1ccc(C2=C3c4ccccc4C4=[N+]3[B-]3(Oc5ccccc54)Oc4ccccc4-c4c5ccccc5c2n43)cc1 (stereo not given)

- fluorescence lifetime (in ClCCl): 4.3 ns
SMILES: N#Cc1ccc(-n2c(-c3ccc(-c4ccc(-n5c6ccccc6c6ccccc65)cc4)s3)nc3c4ccccc4c4ccccc4c32)c2ccccc12

- fluorescence lifetime (in ClCCl): 17.9 ns
SMILES: CCN(CC)c1ccc2c(c1)oc(=O)c1cc3c(-c4ccccc4)nn(-c4ccccc4)c3nc12

- fluorescence lifetime (in CC#N): 2.32 ns
- fluorescence lifetime (in CCCCCC): 3.31 ns
- fluorescence lifetime (in CO): 2.5 ns
- fluorescence lifetime (in ClC(Cl)Cl): 2.34 ns
SMILES: c1ccc2c(-c3cc(-c4nccs4)nc(-c4nccs4)c3)c3ccccc3cc2c1

- fluorescence lifetime (in C1COCCO1): 1.03 ns
SMILES: c1ccc(-c2nc(-c3ccc(-c4nc(-c5ccccc5)c(-c5ccccc5)o4)cc3)oc2-c2ccccc2)cc1
